The Ki is a dissociation constant, usually derived from enzyme kinetics or from competition with a known ligand.

One experiment has as its system D3 than D2 receptor. The conditions noted are these: cited from earlier work.
The target of another experiment is rD2L receptor (Rattus norvegicus, UniProt P61169). The conditions noted are these: read-out: Ki (nM), rD2L [3H]spiperone; HEK293 cells, mean ± SEM.
For another experiment, the target named is rD3 receptor (Rattus norvegicus, UniProt P19020).
Sequence of rD3 receptor (P19020 whole entry): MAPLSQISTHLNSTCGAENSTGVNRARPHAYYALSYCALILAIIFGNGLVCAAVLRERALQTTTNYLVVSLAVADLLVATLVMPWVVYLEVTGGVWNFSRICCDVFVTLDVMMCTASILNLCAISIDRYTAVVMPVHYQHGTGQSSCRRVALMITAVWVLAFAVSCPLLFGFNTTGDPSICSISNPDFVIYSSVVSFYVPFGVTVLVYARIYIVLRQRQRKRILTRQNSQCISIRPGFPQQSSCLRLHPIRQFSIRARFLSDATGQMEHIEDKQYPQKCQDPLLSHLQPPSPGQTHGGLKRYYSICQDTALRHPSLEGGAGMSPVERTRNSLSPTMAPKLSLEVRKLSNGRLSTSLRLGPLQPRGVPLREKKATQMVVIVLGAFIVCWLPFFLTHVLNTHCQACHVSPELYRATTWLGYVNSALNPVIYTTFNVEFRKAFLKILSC

Sequence of rD2L receptor (P61169 whole entry): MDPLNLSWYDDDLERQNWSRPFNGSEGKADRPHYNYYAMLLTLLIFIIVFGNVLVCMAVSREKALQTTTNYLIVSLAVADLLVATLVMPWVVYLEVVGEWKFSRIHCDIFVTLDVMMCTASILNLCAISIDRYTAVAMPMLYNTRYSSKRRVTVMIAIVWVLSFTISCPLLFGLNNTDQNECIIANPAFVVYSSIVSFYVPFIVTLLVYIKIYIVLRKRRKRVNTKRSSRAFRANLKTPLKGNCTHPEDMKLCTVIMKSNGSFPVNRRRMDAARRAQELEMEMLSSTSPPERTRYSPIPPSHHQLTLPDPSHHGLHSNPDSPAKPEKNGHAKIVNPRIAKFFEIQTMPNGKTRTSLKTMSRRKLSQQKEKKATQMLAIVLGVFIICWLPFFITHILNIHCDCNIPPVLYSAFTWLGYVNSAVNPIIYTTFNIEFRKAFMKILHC

Turning to `CCCN[C@H]1CCc2nc(N)sc2C1` [pramipexole], the “fold higher affinity for the D3 than D2 receptor” value with D3 than D2 receptor is recorded as 4- to 10 fold.
Take “N^6-(2-(4-Phenylpiperazin-1-yl)ethyl)-N^6-propyl-5,6,7,8-tetrahydro-1H-naphtho[2,3-d]imidazole-2,6-diamine [Compound 10e]”: the inhibition constant Ki at rD2L receptor was 15900 nM; at rD3 receptor (read-out: Ki (nM), rD3 [3H]spiperone, HEK293 cells, mean ± SEM), 1790 nM. For the same molecule, the D2L/D3 at rD3 receptor (ratio of Ki rD2L / Ki rD3) was determined as 8.89.

Values taken from publication PMC3760392 (Bioorganic & medicinal chemistry, 2013).
